The results in this text go back to PubChem BioAssay (NCI).

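Method: 48-hour compound exposure of cells in 96-well plates, five concentrations, linear interpolation of endpoints. TGI marks complete inhibition of growth.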 Bounds are passed on as bounds.

Experiment in all cases: NCI-60 cell line screen, 48 h
The subject of assay [1] is SF-295 CNS.
The subject of assay [2] is NCI/ADR-RES ovarian.
Assay [3] has as its system HOP-62 NSCLC.
Assay [4] deals with PC-3 prostate.
The subject of assay [5] is NCI-H226 lung.
For assay [6], the system named is MOLT-4 leukemia.
Assay [7] deals with SW-620 colon.
Assay [8] concerns IGROV1 ovarian.
Assay [9] concerns SF-268 CNS.
For assay [10], the system named is SK-MEL-28 melanoma.
Assay [11] relates to CCRF-CEM leukemia.
The test system of assay [12] is UO-31 renal.

As for `Cc1ccc(N=Nc2ccc(O)c(CN(C)C)c2)cc1`, the TGI in assay [1] came to 33.7 µM; in assay [2], 53.7 µM; in assay [3] it was 26.3 µM; in [4], 54.7 µM; in assay [5], 49.4 µM; in assay [6] it was 53.4 µM. In addition, the TGI in [7] is 70.1 µM; in assay [8], 35 µM; in [9], 91.7 µM; in [10], 41.1 µM; in [11], 63 µM; in [12] it was 54.1 µM.

For the molecule `O=C1NC(=O)C2(CCCCCC2)N1`, the TGI in assay [1], in [2], in assay [3], in assay [4], in [5] and in assay [6] was greater than 100 µM each time. Further, the TGI in assay [7], in assay [8], in assay [9], in [10], in [11] and in assay [12] was greater than 100 µM in each case.

`Nc1cc(N2CCCC2)nc(=O)n1-c1ccccc1`: the TGI in assay [1], in assay [2], in assay [3], in [4], in assay [5] and in assay [6] was greater than 100 µM in each case. The TGI in assay [7], in assay [8], in assay [10] and in [11] was greater than 100 µM each time.

Consider `CC(=O)NC(CCC(=O)C=[N+]=N)C(=O)O` (stereo unspecified), for which the TGI in assay [1], in [2], in assay [3], in assay [4], in assay [5] and in assay [6] was greater than 100 µM each time. Besides, the TGI in assay [7], in assay [8], in assay [9], in [10], in [11] and in assay [12] was greater than 100 µM each time.

Turning to `CCOC(=O)CSc1nnc2cc(CN3CCCC3)c(-c3ccc(Cl)cc3)nn12`, the TGI in assay [1], in assay [2], in assay [3], in assay [4], in [5] and in assay [6] was greater than 100 µM in each case. Further, the TGI in [7], in assay [8], in [9], in assay [10], in assay [11] and in assay [12] was greater than 100 µM in each case.

Consider `CC(=O)Nc1ccc(-c2nc3ccccc3s2)cc1I`, for which the TGI in [1] is greater than 100 µM; in [2], greater than 96.3 µM; in [3], 39 µM; in assay [4], greater than 100 µM; in assay [5], 59.4 µM; in assay [6] it was greater than 100 µM. Besides, the TGI in [7] was greater than 100 µM; in [8] it was 20 µM; in [9] it was 97.4 µM; in [10] it was greater than 100 µM; in assay [11] it was greater than 100 µM; in assay [12] it was 67.9 µM.

As to `CC1Oc2c(c(=O)oc3ccccc23)[C@@]1(C)CC1C[C@H](C)C(=O)O1` (stereo partly specified), the TGI in assay [1] is greater than 100 µM; in [2], greater than 100 µM; in [3] it was greater than 100 µM; in [4], greater than 100 µM; in assay [5], greater than 100 µM; in [6], 37.2 µM. Also, the TGI in assay [7] is greater than 100 µM; in [8], greater than 100 µM; in [9], 42.8 µM; in assay [10], 38.7 µM; in assay [11], 32.9 µM; in [12], 90.2 µM.

Regarding `CCC(=O)c1ccc2[nH]c3c(C)c4c(=O)cc(C)[nH]c4c(C)c3c2c1`, the TGI in assay [1], in assay [2], in assay [3], in assay [4], in [5] and in [6] was greater than 100 µM throughout. The TGI in [7], in assay [8], in [9], in assay [10], in assay [11] and in [12] was greater than 100 µM each time.

Take `C=C(C)[C@@]1(OC(=O)c2cc([N+](=O)[O-])cc([N+](=O)[O-])c2)C[C@@H]2CCCC[C@@H]21`: the TGI in assay [1], in assay [2], in assay [3], in [4], in assay [5] and in assay [6] was greater than 100 µM throughout. The TGI in assay [7], in assay [8], in assay [9], in [10], in assay [11] and in assay [12] was greater than 100 µM each time.

As to `Cc1ncc2c(=O)c3c(oc2n1)c1ccccc1n3Cc1ccccc1`, the TGI in [1] was greater than 100 µM; in assay [2] it was greater than 100 µM; in [3], 79.5 µM; in assay [4] it was greater than 100 µM; in assay [5] it was greater than 100 µM; in assay [6] it was greater than 100 µM. For the same molecule, the TGI in [7], in assay [8], in [9], in [10], in [11] and in [12] was greater than 100 µM each time.

Turning to `CC1CC[C@@]2(OC1)OC1CC3C4CCC5C[C@@H](OC6OC(CO)C(OC7OC(CO)C(O)C(OC8OC(CO)C(O)C(OC9OC(CO)C(O)C(O)C9O)C8O)C7OC7OC(CO)C(O)C(O)C7O)C(O)C6O)[C@H](O)C[C@]5(C)C4CC[C@]3(C)C1[C@@H]2C` (stereo partly specified), the TGI in assay [1], in assay [2], in assay [3], in [4], in assay [5] and in assay [7] was greater than 80.5 µM throughout. Besides, the TGI in assay [9], in assay [10] and in assay [11] was greater than 80.5 µM throughout.

With `COC(=O)c1c(O)ccc2c1c1c(n2Cc2ccc(Cl)cc2Cl)C(=O)c2ccccc2C1=O`, the TGI in assay [1] turned out to be 31.5 µM; in assay [2] it was 24.1 µM; in assay [3], 23.5 µM; in [4], 21.3 µM; in assay [5], 24.8 µM; in assay [6] it was 7.17 µM. The TGI worked out at 32.4 µM in [7]; 26.9 µM in assay [8]; 24.6 µM in assay [9]; 30 µM in assay [10]; 29.9 µM in assay [11]; 22.8 µM in assay [12].

`O=c1oc2ccccc2c(O)c1/C=N/C(=S)NCCc1ccccc1`: the TGI in assay [1], in assay [2], in assay [3], in assay [4], in [5] and in assay [6] was greater than 100 µM throughout. Further, the TGI in [7] was greater than 100 µM; in assay [8] it was greater than 100 µM; in assay [9] it was greater than 100 µM; in [10] it was greater than 100 µM; in assay [11] it was 86.1 µM; in assay [12], greater than 74.6 µM.

On to `CN(N)c1cc(=O)[nH]c(=O)[nH]1`, for which the TGI in assay [1], in assay [2], in assay [3], in assay [4], in assay [5] and in [6] was greater than 100 µM in each case. The TGI in [7], in [8], in [9], in [10] and in [11] was greater than 100 µM in each case.

Take `CCCCC(Sc1cc(Cl)c(C)cc1S(=O)(=O)Nc1n[nH]c(N)n1)C(=O)OC` (stereo unspecified): the TGI in assay [1], in [2], in assay [3], in assay [4], in [5] and in assay [6] was greater than 10 µM in each case. Besides, the TGI in assay [7], in [8], in assay [9], in [10] and in assay [11] was greater than 10 µM throughout.

Consider `CN(C)S(=O)(=O)/N=C/c1cccc(/C=N/S(=O)(=O)N(C)C)c1`, for which the TGI in assay [1], in assay [2], in assay [3], in assay [4], in [5] and in assay [6] was greater than 100 µM each time. Moreover, the TGI in assay [7], in assay [9], in assay [10], in assay [11] and in [12] was greater than 100 µM each time.

On to `O=c1[nH]nc(Cc2ccccc2)n1/N=C\c1ccccc1`, for which the TGI in assay [1], in assay [2], in assay [3], in assay [4], in assay [5] and in assay [6] was greater than 100 µM each time. Moreover, the TGI in assay [7], in assay [8], in assay [10], in assay [11] and in assay [12] was greater than 100 µM throughout.

Consider `COc1ccc(/C(O)=C/c2nc3cccnc3nc2/C=C(\O)c2ccc(OC)cc2)cc1`, for which the TGI in [1] is 46.3 µM; in [2], 53 µM; in assay [3] it was 20 µM; in assay [4], greater than 100 µM; in assay [5], 22.5 µM; in assay [6], greater than 100 µM. Moreover, the TGI in [8] is 25.4 µM; in assay [9] it was 28.6 µM; in assay [10], 69 µM; in assay [11] it was greater than 100 µM; in assay [12], 71.2 µM.

As to `CNC(=O)N(CCC#N)CCCN(C(=O)NC)c1ccccc1`, the TGI in assay [1], in assay [2], in assay [3], in assay [4], in assay [5] and in [6] was greater than 100 µM in each case. Besides, the TGI in assay [7], in assay [8], in assay [10], in assay [11] and in assay [12] was greater than 100 µM in each case.

Turning to `CC(SC(=S)N1CCOCC1)C(=O)Nc1nnc(-c2ccccc2)o1` (stereo unspecified), the TGI in assay [1] is greater than 100 µM; in [2] it was 96.4 µM; in [3], greater than 100 µM; in [4], greater than 100 µM; in assay [5] it was greater than 100 µM; in assay [6], greater than 100 µM. Further, the TGI in [7] was greater than 100 µM; in [8] it was greater than 100 µM; in [10] it was greater than 100 µM; in assay [11] it was 18.3 µM; in assay [12], greater than 100 µM.

For `C=C(C)[C@H]1C=C[C@@H](OC(=O)c2cccnc2)[C@@]23CO[C@@](C)([C@H](OC(=O)c4cccnc4)[C@@]4(OC(C)=O)C[C@H](C)[C@H](OCCC)[C@@H]4[C@H]2OC(C)=O)[C@H]13`, the TGI in [1], in [2], in [3], in assay [4], in assay [5] and in assay [6] was greater than 15 µM throughout. For the same molecule, the TGI in assay [7], in assay [8], in [9], in assay [11] and in assay [12] was greater than 15 µM throughout.

On to `COC(CC1(/C=C/O[Si](C(C)C)(C(C)C)C(C)C)C(=O)N(C)c2ccccc21)OC` (stereo unspecified), for which the TGI was greater than 100 µM in assay [1]; 78.4 µM in assay [2]; greater than 100 µM in assay [3]; greater than 100 µM in assay [4]; 90 µM in assay [5]; greater than 100 µM in assay [6]. Further, the TGI in assay [7], in assay [9], in [10], in assay [11] and in assay [12] was greater than 100 µM in each case.

`Nc1ccn(C2CCC(CO)O2)c(=S)n1` (stereo unspecified): the TGI in assay [1], in assay [2], in assay [3], in [4], in assay [5] and in assay [6] was greater than 100 µM in each case. The TGI in assay [7], in [8], in [9], in assay [11] and in assay [12] was greater than 100 µM in each case.
